Experimental data published in the NIST ThermoML archive (doi:10.1021/je060271a).
Several values for one entry are separate records, joined by “and”; a condition that tells them apart may be missing. Equal entries are not always repeated.

Settings: 283.16 K, Liquid, Vibrating tube method

CCCCCC(=O)OCC(COC(=O)CCCCC)(COC(=O)CCCCC)COC(=O)CCCCC [pentaerythritol tetrahexanoate]
Settings | mass density
227.4 kPa | 1004.4 kg/m3
235.2 kPa | 1004.3 kg/m3
235.3 kPa | 1004.3 kg/m3
237.1 kPa | 1004.4 kg/m3
361.3 kPa | 1004.3 kg/m3
363.1 kPa | 1004.3 kg/m3
365.9 kPa | 1004.3 kg/m3
403.2 kPa | 1004.4 kg/m3
405.8 kPa | 1004.3 kg/m3
408.6 kPa | 1004.4 kg/m3
410.7 kPa | 1004.4 kg/m3
439.2 kPa | 1004.4 kg/m3
500.7 kPa | 1004.3 kg/m3
504.2 kPa | 1004.4 kg/m3
508.2 kPa | 1004.5 kg/m3
663.2 kPa | 1004.4 kg/m3
669.2 kPa | 1004.5 kg/m3
813.4 kPa | 1004.5 kg/m3
1597.6 kPa | 1005.1 kg/m3
1612.4 kPa | 1005 kg/m3
1627.1 kPa | 1005.2 kg/m3
1642.8 kPa | 1005.2 kg/m3
1657.5 kPa | 1005.1 kg/m3
1675.4 kPa | 1005.1 kg/m3
1690.5 kPa | 1005.2 kg/m3
1705.1 kPa | 1005.2 kg/m3
1720 kPa | 1005.1 kg/m3
1767.2 kPa | 1005.1 kg/m3
1782.2 kPa | 1005.2 kg/m3
1800 kPa | 1005.2 kg/m3
1833.4 kPa | 1005.3 kg/m3
1844.8 kPa | 1005.2 kg/m3
2221.4 kPa | 1005.5 kg/m3
2237 kPa | 1005.5 kg/m3
2251.7 kPa | 1005.5 kg/m3
2267.5 kPa | 1005.4 kg/m3
2279.3 kPa | 1005.5 kg/m3
2540.2 kPa | 1005.7 kg/m3
2564.1 kPa | 1005.7 kg/m3
2812.8 kPa | 1005.7 kg/m3
2855.3 kPa | 1005.8 kg/m3
3252.2 kPa | 1006 kg/m3
3270.9 kPa | 1006.1 kg/m3
3286.9 kPa | 1006.1 kg/m3
3302.6 kPa | 1006.1 kg/m3
3318.6 kPa | 1006.2 kg/m3
3372.5 kPa | 1006.1 kg/m3
3388.4 kPa | 1006.1 kg/m3
3420.8 kPa | 1006.1 kg/m3
3440.8 kPa | 1006.1 kg/m3
3456.7 kPa | 1006.1 kg/m3
3473.5 kPa | 1006.1 kg/m3
3493.4 kPa | 1006.3 kg/m3
3510.2 kPa | 1006.3 kg/m3
3530.5 kPa | 1006.2 kg/m3
3547.3 kPa | 1006.3 kg/m3
3564.3 kPa | 1006.2 kg/m3
3581.1 kPa | 1006.3 kg/m3
3601.7 kPa | 1006.3 kg/m3
3619.1 kPa | 1006.3 kg/m3
3636 kPa | 1006.1 kg/m3
3657.3 kPa | 1006.3 kg/m3
3674.7 kPa | 1006.2 kg/m3
3692.2 kPa | 1006.3 kg/m3
3709.8 kPa | 1006.3 kg/m3
3730.8 kPa | 1006.4 kg/m3
3748.8 kPa | 1006.3 kg/m3
3766.1 kPa | 1006.4 kg/m3
3784.2 kPa | 1006.4 kg/m3
3805.3 kPa | 1006.3 kg/m3
3823 kPa | 1006.3 kg/m3
3841.3 kPa | 1006.5 kg/m3
3863 kPa | 1006.3 kg/m3
3877.2 kPa | 1006.4 kg/m3
3895.2 kPa | 1006.5 kg/m3
3920.3 kPa | 1006.4 kg/m3
3938.5 kPa | 1006.5 kg/m3
4764.4 kPa | 1006.8 kg/m3
4769.6 kPa | 1006.9 kg/m3
4781 kPa | 1006.9 kg/m3
4797.5 kPa | 1007 kg/m3
5309.2 kPa | 1007.3 kg/m3
5315.8 kPa | 1007.3 kg/m3
5321.5 kPa | 1007.3 kg/m3
5327.9 kPa | 1007.2 kg/m3
5334.1 kPa | 1007.3 kg/m3
5341.5 kPa | 1007.2 kg/m3
5347.3 kPa | 1007.4 kg/m3
5354.7 kPa | 1007.4 kg/m3
5361.1 kPa | 1007.3 kg/m3
5367.3 kPa | 1007.2 kg/m3
5373.4 kPa | 1007.3 kg/m3
5380.6 kPa | 1007.3 kg/m3
5386.9 kPa | 1007.3 kg/m3
5392.9 kPa | 1007.3 kg/m3
5400.4 kPa | 1007.2 kg/m3
5406.9 kPa | 1007.2 kg/m3
5413 kPa | 1007.3 kg/m3
5419.4 kPa | 1007.3 kg/m3
5426.8 kPa | 1007.3 kg/m3
5432 kPa | 1007.3 kg/m3
5438.4 kPa | 1007.3 kg/m3
5446 kPa | 1007.4 kg/m3
5521.9 kPa | 1007.3 kg/m3
6618.4 kPa | 1007.9 kg/m3
6623.1 kPa | 1008.1 kg/m3
6626.7 kPa | 1008 kg/m3
6630.5 kPa | 1008.2 kg/m3
6653 kPa | 1008 kg/m3
6657.1 kPa | 1008.1 kg/m3
6661.4 kPa | 1008 kg/m3
6666.3 kPa | 1008 kg/m3
6670.4 kPa | 1008 kg/m3
6722 kPa | 1008 kg/m3
6726 kPa | 1008.1 kg/m3
6730.2 kPa | 1008.1 kg/m3
6734.1 kPa | 1008.1 kg/m3
6738.3 kPa | 1008 kg/m3
6743.3 kPa | 1008.1 kg/m3
6747.1 kPa | 1007.9 kg/m3
6750.9 kPa | 1008 kg/m3
6755.6 kPa | 1008 kg/m3
6763.5 kPa | 1008.2 kg/m3
6768 kPa | 1008 kg/m3
6772.6 kPa | 1008 kg/m3
6775.9 kPa | 1008.2 kg/m3 and 1008.1 kg/m3
6776.4 kPa | 1008.1 kg/m3 and 1008 kg/m3
6783.8 kPa | 1008 kg/m3
6784.2 kPa | 1008.2 kg/m3
6784.5 kPa | 1008 kg/m3
6785.8 kPa | 1008.2 kg/m3
8353.5 kPa | 1009.1 kg/m3
8367.6 kPa | 1008.9 kg/m3
9689.3 kPa | 1009.7 kg/m3 and 1009.8 kg/m3
9689.5 kPa | 1009.7 kg/m3
9689.6 kPa | 1009.7 kg/m3
9689.8 kPa | 1009.7 kg/m3
9690.2 kPa | 1009.8 kg/m3
9691.7 kPa | 1009.7 kg/m3
9694.6 kPa | 1009.8 kg/m3
9697.7 kPa | 1009.8 kg/m3
9697.9 kPa | 1009.8 kg/m3 and 1009.9 kg/m3
9702.1 kPa | 1009.8 kg/m3
9711.5 kPa | 1009.8 kg/m3
